According to publication PMC11184370 (RSC Advances, 2024):
Read-outs that look alike come from different tables or passages of the source.

Experiments:
[1] = system: tRNA; experiment: UV-visible absorption titration with tRNA; format: binding, yeast; settings: Tris–HCl buffer pH 7.2
[2] = system: tRNA; experiment: Ethidium bromide displacement, fluorescence quenching of EB-tRNA adduct; format: binding, yeast; settings: λem = 580 nm; for Quenching constant (Ksv), emission spectroscopy, tRNA: EB 5 μM, RNA 50 μM, [Q] 10–200 μM
[3] = biological target: T1, Bovine serum albumin (BSA) (Bos taurus, UniProt P02769); experiment: BSA absorption titration; format: binding; settings: λmax = 278 nm
T1 sequence (P02769 25-607): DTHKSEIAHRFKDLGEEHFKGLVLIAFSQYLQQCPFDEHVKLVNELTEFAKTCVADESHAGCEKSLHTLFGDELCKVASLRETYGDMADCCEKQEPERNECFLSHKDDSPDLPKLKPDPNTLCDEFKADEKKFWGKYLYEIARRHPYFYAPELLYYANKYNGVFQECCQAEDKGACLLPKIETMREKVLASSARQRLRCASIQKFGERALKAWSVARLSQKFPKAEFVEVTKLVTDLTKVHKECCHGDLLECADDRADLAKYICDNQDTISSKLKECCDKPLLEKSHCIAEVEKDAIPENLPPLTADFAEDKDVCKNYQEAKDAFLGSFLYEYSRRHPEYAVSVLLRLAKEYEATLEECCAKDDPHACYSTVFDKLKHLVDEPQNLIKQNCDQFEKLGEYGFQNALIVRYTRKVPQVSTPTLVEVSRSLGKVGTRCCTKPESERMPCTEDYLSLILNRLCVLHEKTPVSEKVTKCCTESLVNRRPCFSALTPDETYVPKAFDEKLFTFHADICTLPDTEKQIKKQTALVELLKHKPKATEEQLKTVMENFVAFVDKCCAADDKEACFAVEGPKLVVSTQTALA

[4] = biological target: T1, Bovine serum albumin (BSA); experiment: BSA fluorescence quenching; format: binding; settings: λmax = 345 nm; for Quenching rate constant (Kq), BSA emission: τ0 = 10^−8 s
[5] = system: ctDNA; experiment: UV-visible absorption titration with ctDNA; format: binding, calf thymus; settings: Tris–HCl buffer pH 7.2
[6] = system: MCF7 breast carcinoma cells; experiment: MTT in vitro cytotoxicity, MCF7; format: cell-based, human; settings: for Selective index (SI), MCF7: vs WI38; for IC50: read-out: In vitro cytotoxicity IC50, MCF7
[7] = Solution stability by UV-visible spectroscopy in PBS; format: physicochemical; settings: PBS pH 7.2 / DMSO, 2.5 × 10^−5 M, up to 48 h
[8] = system: HeLa cervical carcinoma cells; experiment: MTT in vitro cytotoxicity, HeLa; format: cell-based, human; settings: for Selective index (SI), HeLa: vs WI38; for IC50: read-out: In vitro cytotoxicity IC50, HeLa
[9] = system: WI38 normal lung fibroblast cells; experiment: MTT in vitro cytotoxicity, WI38; format: cell-based, human; settings: read-out: In vitro cytotoxicity IC50, WI38
[10] = system: HeLa cells; experiment: Cell cycle distribution by flow cytometry; format: cell-based, human; settings: IC50 concentration, 24 h, control 20.3%
[11] = system: ctDNA; experiment: Ethidium bromide displacement, fluorescence quenching of EB-ctDNA adduct; format: binding, calf thymus; settings: λem = 580 nm; for Quenching constant (Ksv), emission spectroscopy, ctDNA: EB 5 μM, DNA 50 μM, [Q] 10–200 μM
[12] = system: HeLa cells; experiment: Annexin V/propidium iodide flow cytometry; format: cell-based, human; settings: IC50, 24 h
[13] = system: MCF7 breast carcinoma cells; settings: read-out: In vitro cytotoxicity IC50, MCF7; 24 h ref [84]; cited from earlier work
[14] = system: HeLa cervical carcinoma cells; settings: read-out: In vitro cytotoxicity IC50, HeLa; 48 h ref [85]; cited from earlier work

Row | % H, emission spectroscopy, tRNA [2] | Quenching constant (Ksv), emission spectroscopy, tRNA [2] | % hyper (hyperchromism), BSA absorption spectroscopy [3] | % hypo, BSA emission spectroscopy [4] | Number of binding sites (n), BSA emission [4] | Stern–Volmer quenching constant (Ksv), BSA emission [4] | Quenching rate constant (Kq), BSA emission [4] | % H, emission spectroscopy, ctDNA [11] | Molecule | % H* (hypochromism), absorption spectroscopy, tRNA [1] | % H* (hypochromism), absorption spectroscopy, ctDNA [5] | Selective index (SI), MCF7 ([6]; 24 h) | IC50 ([6]; 24 h) | IC50 ([6]; 48 h) | Solution stability (changes of UV-visible spectrum with time) [7] | Selective index (SI), HeLa ([8]; 24 h) | Selective index (SI), HeLa ([8]; 48 h) | IC50 ([8]; 24 h) | IC50 ([8]; 48 h) | IC50 ([9]; 24 h) | IC50 ([9]; 48 h) | further results
1 | 48.8% | 4.51 ×10^4 | 11.90% | 42.63% | 1.03 | 5.39 × 10^4 | 5.39e+12 M⁻¹ s⁻¹ | 54.2% | [Pt(HL)Cl]Cl [Complex C2] | 7.60% | 10.4% | 2.39 | 12.3 ± 0.9 µM | 8.61 ± 0.6 µM | insignificant changes during the 48 h test | 3.63 | 4.95 | 8.12 ± 0.7 µM | 6.31 ± 0.4 µM | 29.5 ± 2.2 µM | 31.3 ± 2.2 µM | Selective index (SI), MCF7 ([6]; 48 h): 3.63; Cells in G2/M phase [10]: 20.3%; Quenching constant (Ksv), emission spectroscopy, ctDNA [11]: 1.42 ×10^4; Change of necrotic cells compared to untreated HeLa cells [12]: 1.6 fold
2 | 26.1% | 1.19 ×10^4 | 39.03% | 27.18% | 0.93 | 2.33 × 10^4 | 2.33e+12 M⁻¹ s⁻¹ | 32.4% | 3-acetylcoumarin benzoylhydrazone [HL] | 7.20% | 8.35% | 1.74 | 40.8 ± 2.6 µM | 36.8 ± 2.4 µM | insignificant changes up to the first 3 h then suffered hydrolysis in the aqueous media through the next 24 h | 1.15 | 1.57 | 61.6 ± 3.1 µM | 47.6 ± 2.9 µM | 71.1 ± 3.4 µM | 75 ± 3.5 µM | Selective index (SI), MCF7 ([6]; 48 h): 2.03; Quenching constant (Ksv), emission spectroscopy, ctDNA [11]: 0.34 ×10^4
3 | – | – | – | – | – | – | – | – | N.N.[Cl][Pt][Cl] [Cisplatin, cis-platin] | – | – | – | – | – | – | – | – | – | – | – | – | IC50 [13]: 31.2 ± 1.8 µM; IC50 [14]: 67.6 ± 2 µM
4 | 26.9% | 1.6 ×10^4 | 40.74% | 35.69% | 0.92 | 4.98 × 10^4 | 4.98e+12 M⁻¹ s⁻¹ | 50.1% | [Ag(HL)2]NO3 [Complex C3] | 6.66% | 6.81% | 1.28 | 58.8 ± 2.9 µM | 54 ± 3 µM | slight decrease in absorption intensity | 1.93 | 1.95 | 39.1 ± 2.5 µM | 32.5 ± 2.3 µM | 75.4 ± 3.6 µM | 63.6 ± 3.3 µM | Quenching constant (Ksv), emission spectroscopy, ctDNA [11]: 0.52 ×10^4
